Measurements as given in ChEMBL document CHEMBL3352660, “Design, synthesis and pharmacological evaluation of novel polycyclic heteroarene ethers as PDE10A inhibitors: part II” (Bioorg Med Chem Lett, 2014).

Columns and labels:
[1] = system: Rattus norvegicus; test: Antipsychotic activity in po dosed Sprague-Dawley rat conditioned avoidance response model assessed as avoidance of shock measured after 2 hrs relative to vehicle-treated control; type: functional
[2] = system: Rattus norvegicus; test: Antipsychotic activity in Sprague-Dawley rat prepulse inhibition deficit model assessed as reversal of MK-801-induced effect at 1 mg/kg, po administered 110 mins prior to MK-801 challenge relative to vehicle-treated control; type: functional; set-up: scale not given: the % may be the effect or the level left

SMILES: Cn1cc(-c2ccc(Oc3nccnc3-c3ccncc3)cc2)c2ncccc21
- Activity [1]: Dose-dependent effect
- ED50 [1]: 2.08 mg/kg
- Activity [2]: 43%
